Test results published in patent US4533666A, “6-Phenyl-2,3-bis-(4-methoxyphenyl)-pyridine derivatives having anti-inflammatory activity” (Eli Lilly and Company, priority 1983, dated 1985).

Key:
[1] = mouse writhing assay (acetic acid-induced); assay type: in vivo, mouse (Cox standard strain albino male mice); conditions: oral gavage in corn oil-acacia emulsion (5%), three hours before acetic acid (0.60 percent) i.p., five mice per group; for ED50: Mus musculus, po, 3 h
Text: The analgesic activity of a number of compounds provided by this invention has been determined in the standard mouse writhing assay. Writhing, which is characterized by contraction of the abdominal musculature, extension of the hindlegs, and rotation of the trunk, was induced in Cox standard strain albino male mice. The mice, weighing 18-24 grams, were fasted overnight and given the test compound by gavage in a corn oil-acacia emulsion (5%) three hours before writhing was induced by the intraperitoneal administration of acetic acid (0.60 percent). Each treatment group consisted of five mice. The total number of writhes for the treatment group was determined during a 10-minute observation starting five minutes after acetic acid administration. […] Table I which follows presents typical test results obtained with certain of the compounds of this invention. The results in the mouse writhing assay are presented as the effective oral (p.o.) dose in mg./kg. of the tested compound required to inhibit induced writhing in the test animals by fifty percent (ED50).

[2] = Established adjuvant-induced arthritis test in rats, uninjected paw volume inflammation; assay type: in vivo, rat (male Lewis-Wistar rats); conditions: Days 14 through 30, AUC difference

SMILES | ED50 [1] | % Inhibition of Uninjected Paw Volume Inflammation ([2]; 5 mg./kg. p.o. × 15) | % Inhibition of Uninjected Paw Volume Inflammation ([2]; 10 mg./kg. p.o. × 15) | % Inhibition of Uninjected Paw Volume Inflammation ([2]; 25 mg./kg. p.o. × 15) | other results
COc1ccc(-c2ccc(-c3ccccc3)nc2-c2ccc(OC)cc2)cc1 [Example 2, 6-Phenyl-2,3-bis(4-methoxyphenyl)pyridine] | 2.7 mg/kg |  |  |  | % Inhibition of Uninjected Paw Volume Inflammation ([2]; 25 mg./kg. p.o. × 15, Average of two experiments): 40%
COc1ccc(-c2ccc(-c3ccc(F)cc3)nc2-c2ccc(OC)cc2)cc1 [Example 6, 6-(4-Fluorophenyl)-2,3-bis(4-methoxyphenyl)pyridine 4-methylbenzenesulfonate] |  |  |  |  | Mouse Writhing ED50 ([1]; 180 min, 4-methylbenzenesulfonate, 180 min): 4.2 mg./kg. p.o.; % Inhibition of Uninjected Paw Volume Inflammation ([2]; 5 mg./kg. p.o. × 15, 4-methylbenzenesulfonate): 69%; % Inhibition of Uninjected Paw Volume Inflammation ([2]; 10 mg./kg. p.o. × 15, 4-methylbenzenesulfonate): 71%
COc1ccc(-c2ccc(-c3ccc(F)cc3)nc2-c2ccc(OC)cc2)cc1 [Example 1, 6-(4-Fluorophenyl)-2,3-bis(4-methoxyphenyl)pyridine] | 3.5 mg/kg | 70% | 80% |  | 
COc1ccc(-c2ccc(-c3ccc(Br)cc3)nc2-c2ccc(OC)cc2)cc1 [Example 4, 6-(4-Bromophenyl)-2,3-bis(4-methoxyphenyl)pyridine] | 4.1 mg/kg |  | 27% | 48% | 
COc1ccc(-c2ccc(-c3ccc(C(F)(F)F)cc3)nc2-c2ccc(OC)cc2)cc1 [Example 7, 6-(4-Trifluoromethylphenyl)-2,3-bis(4-methoxyphenyl)pyridine] | 8.9 mg/kg |  |  | 33% | 
COc1ccc(-c2ccc(-c3ccc(Cl)cc3)nc2-c2ccc(OC)cc2)cc1 [Example 3, 6-(4-Chlorophenyl)-2,3-bis(4-methoxyphenyl)pyridine] | 0.78 mg/kg | 30% | 58% |  | 
